Assay results published in paper PMC5740388, “In Vitro Antibacterial Properties of Cefiderocol, a Novel Siderophore Cephalosporin, against Gram-Negative Bacteria” (Antimicrobial Agents and Chemotherapy, 2017).
Where two headings read alike, the source gives them in different places.

What was measured:
Assay in all cases: competition with […]benzylpenicillin for PBPs
Type in all cases: binding
[1] = target: T1, PBP4 of P. aeruginosa ATCC 27853 (Pseudomonas aeruginosa, UniProt Q9HZG1); settings: covalent; read-out: IC50 (μg/ml) / P. aeruginosa ATCC 27853 / Cefiderocol
T1 construct: gene PA3047

[2] = target: T2, PBP3 of E. coli NIHJ JC-2 (Escherichia coli, UniProt P0AD68); settings: covalent
T2 construct: gene ftsI

[3] = target: T3, PBP1b of E. coli NIHJ JC-2 (Escherichia coli, UniProt P02919); settings: covalent
T3 construct: gene mrcB

[4] = target: T4, PBP2 of K. pneumoniae SR22291 (Klebsiella pneumoniae, UniProt A6T696); settings: covalent
T4 construct: gene mrdA
T4 sequence (A6T696 1-633): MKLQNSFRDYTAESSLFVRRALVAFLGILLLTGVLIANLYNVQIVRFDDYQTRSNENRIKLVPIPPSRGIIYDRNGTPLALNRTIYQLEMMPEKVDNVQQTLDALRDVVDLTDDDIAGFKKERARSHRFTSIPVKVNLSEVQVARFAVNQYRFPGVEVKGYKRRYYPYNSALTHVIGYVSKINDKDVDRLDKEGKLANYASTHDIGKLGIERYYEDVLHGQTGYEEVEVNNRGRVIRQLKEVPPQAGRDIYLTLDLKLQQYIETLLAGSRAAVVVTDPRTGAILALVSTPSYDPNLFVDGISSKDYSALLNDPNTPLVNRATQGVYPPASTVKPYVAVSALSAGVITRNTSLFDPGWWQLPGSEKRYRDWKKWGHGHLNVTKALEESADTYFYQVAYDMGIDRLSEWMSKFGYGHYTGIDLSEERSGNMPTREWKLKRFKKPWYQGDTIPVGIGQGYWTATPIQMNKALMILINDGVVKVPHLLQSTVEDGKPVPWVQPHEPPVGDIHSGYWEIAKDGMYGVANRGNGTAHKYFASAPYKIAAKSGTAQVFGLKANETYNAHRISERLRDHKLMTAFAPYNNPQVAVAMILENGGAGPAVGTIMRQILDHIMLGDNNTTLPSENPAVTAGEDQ

[5] = target: T5, PBP4 of E. coli NIHJ JC-2 (Escherichia coli, UniProt P24228); settings: read-out: % inhibition at 4 μg/ml
T5 construct: gene dacB

[6] = target: T6, PBP1b of K. pneumoniae SR22291 (Klebsiella pneumoniae, UniProt A0ACD7TXF1); settings: covalent
T6 construct: gene mrcB
T6 sequence (A0ACD7TXF1 1-850): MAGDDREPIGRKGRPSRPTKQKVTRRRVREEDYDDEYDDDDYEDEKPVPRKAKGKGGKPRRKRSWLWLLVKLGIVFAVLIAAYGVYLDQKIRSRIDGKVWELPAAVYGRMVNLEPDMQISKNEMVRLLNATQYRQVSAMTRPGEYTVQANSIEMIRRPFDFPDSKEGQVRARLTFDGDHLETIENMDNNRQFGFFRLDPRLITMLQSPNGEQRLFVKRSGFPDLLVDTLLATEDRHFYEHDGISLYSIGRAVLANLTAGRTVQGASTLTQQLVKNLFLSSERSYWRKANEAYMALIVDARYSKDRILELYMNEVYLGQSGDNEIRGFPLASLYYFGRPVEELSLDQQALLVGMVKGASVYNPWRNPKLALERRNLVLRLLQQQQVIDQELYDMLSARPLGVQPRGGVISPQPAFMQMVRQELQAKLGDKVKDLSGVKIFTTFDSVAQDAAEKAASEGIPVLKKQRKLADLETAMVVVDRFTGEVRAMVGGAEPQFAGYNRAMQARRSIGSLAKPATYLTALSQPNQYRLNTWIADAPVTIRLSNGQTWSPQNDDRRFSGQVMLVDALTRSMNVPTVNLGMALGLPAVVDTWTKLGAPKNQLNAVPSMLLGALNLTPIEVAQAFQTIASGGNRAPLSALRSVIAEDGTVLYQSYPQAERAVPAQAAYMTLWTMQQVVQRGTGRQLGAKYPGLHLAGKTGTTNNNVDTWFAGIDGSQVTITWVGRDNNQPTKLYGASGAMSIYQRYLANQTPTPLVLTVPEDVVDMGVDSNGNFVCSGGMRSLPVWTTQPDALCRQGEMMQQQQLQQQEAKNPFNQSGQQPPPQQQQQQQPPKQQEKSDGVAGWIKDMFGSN

[7] = target: T5, PBP4 of E. coli NIHJ JC-2; settings: covalent; read-out: IC50 (μg/ml) / E. coli NIHJ JC-2 / Ceftazidime
[8] = read-out: IC50 (μg/ml) / E. coli NIHJ JC-2 / Cefiderocol (converted)
[9] = read-out: IC50 (μg/ml) / K. pneumoniae SR22291 / Cefiderocol (converted)
[10] = read-out: IC50 (μg/ml) / K. pneumoniae SR22291 / Ceftazidime (converted)

| SMILES | IC50 [1] [µM] | IC50 [2, 8] [µM] | IC50 [3, 8] [µM] | IC50 [4, 9] [µM] | inhibition at 4 µg/mL [5] [%] | IC50 [6, 9] [µM] | IC50 ([2]; read-out: IC50 (μg/ml) / E. coli NIHJ JC-2 / Ceftazidime (converted)) [µM] | IC50 ([3]; read-out: IC50 (μg/ml) / E. coli NIHJ JC-2 / Ceftazidime) [µM] | IC50 [4, 10] [µM] | IC50 [7] [µM] | IC50 [6, 10] [µM] |
| --- | --- | --- | --- | --- | --- | --- | --- | --- | --- | --- | --- |
| CC(C)(O/N=C(\C(=O)N[C@@H]1C(=O)N2C(C(=O)[O-])=C(C[N+]3(CCNC(=O)c4ccc(O)c(O)c4Cl)CCCC3)CS[C@H]12)c1csc(N)n1)C(=O)O [cefiderocol] | > 5.32 | 0.0532 | 4.48 | 0.0838 | 63 | 4.65 | – | – | – | – | – |
| CC(C)(O/N=C(\C(=O)N[C@@H]1C(=O)N2C(C(=O)[O-])=C(C[n+]3ccccc3)CS[C@H]12)c1csc(N)n1)C(=O)O [ceftazidime] | > 7.32 | – | – | – | – | – | 0.823 | > 7.32 | 0.75 | > 1.83 | 4.21 |
